Data on 20 compounds can be found in ChEMBL document CHEMBL1201862, “PubChem BioAssay data set” (2004).

Test [1] has as its target T1, Ubiquitin-conjugating enzyme E2 N (Homo sapiens, UniProt P61088).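 Also: Dose-response confirmation in a TR-FRET assay detecting UBC13-driven polyubiquitin chain formation, inhibition measured.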
T1 sequence (P61088 whole entry): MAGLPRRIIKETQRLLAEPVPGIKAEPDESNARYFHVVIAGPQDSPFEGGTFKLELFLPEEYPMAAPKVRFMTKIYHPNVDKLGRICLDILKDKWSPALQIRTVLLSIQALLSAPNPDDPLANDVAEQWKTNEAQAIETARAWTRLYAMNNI
Type of test: functional.

Test [2] deals with T2, Corticotropin-releasing factor receptor 2/Corticotropin-releasing factor-binding protein (Homo sapiens, UniProt P24387+Q13324).
T2 sequence (Q13324 whole entry): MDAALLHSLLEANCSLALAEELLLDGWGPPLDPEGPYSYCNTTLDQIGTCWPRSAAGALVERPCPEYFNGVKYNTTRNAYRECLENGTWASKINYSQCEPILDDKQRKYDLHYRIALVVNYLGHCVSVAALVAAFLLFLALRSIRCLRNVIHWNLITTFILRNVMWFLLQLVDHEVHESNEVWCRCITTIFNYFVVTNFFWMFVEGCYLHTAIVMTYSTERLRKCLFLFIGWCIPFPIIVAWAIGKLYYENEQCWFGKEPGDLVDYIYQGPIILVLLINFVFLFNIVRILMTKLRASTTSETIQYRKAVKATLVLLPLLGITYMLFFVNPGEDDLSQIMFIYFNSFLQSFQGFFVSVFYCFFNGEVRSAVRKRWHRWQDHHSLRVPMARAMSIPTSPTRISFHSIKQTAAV
T2 sequence (P24387 whole entry): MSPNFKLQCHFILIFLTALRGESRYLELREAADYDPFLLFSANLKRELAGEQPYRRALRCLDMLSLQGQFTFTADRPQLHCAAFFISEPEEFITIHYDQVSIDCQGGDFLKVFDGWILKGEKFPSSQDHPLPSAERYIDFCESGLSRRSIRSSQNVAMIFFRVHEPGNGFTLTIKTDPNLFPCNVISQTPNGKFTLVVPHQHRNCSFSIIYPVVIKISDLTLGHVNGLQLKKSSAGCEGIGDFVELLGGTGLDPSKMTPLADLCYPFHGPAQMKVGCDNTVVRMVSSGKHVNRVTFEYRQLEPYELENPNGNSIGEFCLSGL
As to the kind of experiment: Dose Response confirmation of uHTS hits for small molecule antagonists of the CRF-binding protein and CRF-R2 receptor complex. Type of test: functional. Particulars: read-out: IC50_Mean.

Test [3] deals with T2, Corticotropin-releasing factor receptor 2/Corticotropin-releasing factor-binding protein. As to the kind of experiment: activators of CRF receptor 2 with binding protein – uHTS hits, confirmation (AID 602473). The class given is functional. Particulars: read-out: EC50_Mean.
Test [4] addresses T3, Fatty acid synthase (Homo sapiens, UniProt P49327). As to the kind of experiment: FAS thioesterase domain inhibitors, dose response, biochemical, endpoint fluorescence intensity, uHTS hits (AID 624327).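 Also: fluorescence from hydrolysis of an O-methyl fluorescein acyl ester substrate by the enzyme.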 Type of test: functional.
Test [5] addresses T3, Fatty acid synthase. The test can be described thus: FAS thioesterase domain inhibitors, dose response, biochemical, kinetic fluorescence intensity (AID 624326).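 Also: rate of fluorescence rise from hydrolysis of a fluorogenic O-methyl fluorescein ester substrate.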 Type of test: functional.
Test [6] concerns the target Glyceraldehyde-3-phosphate dehydrogenase (Homo sapiens, UniProt P04406).
Test [7] has as its target Peroxisome proliferator-activated receptor gamma/Nuclear receptor coactivator 2 (Homo sapiens, UniProt P37231). The class given is functional.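 Also: agonist potency for raising coactivator recruitment to the receptor.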
Test [8] has as its target Peroxisome proliferator-activated receptor gamma/Nuclear receptor coactivator 1 (Homo sapiens, UniProt P37231). The class given is functional.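 Also: agonist potency as compounds enhance coactivator SRC-1 recruitment to PPARgamma.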
Test [9] deals with Peroxisome proliferator-activated receptor gamma/Nuclear receptor coactivator 3 (Homo sapiens, UniProt P37231). Type of test: functional.
Chain of Peroxisome proliferator-activated receptor gamma/Nuclear receptor coactivator 3 (P37231 whole entry): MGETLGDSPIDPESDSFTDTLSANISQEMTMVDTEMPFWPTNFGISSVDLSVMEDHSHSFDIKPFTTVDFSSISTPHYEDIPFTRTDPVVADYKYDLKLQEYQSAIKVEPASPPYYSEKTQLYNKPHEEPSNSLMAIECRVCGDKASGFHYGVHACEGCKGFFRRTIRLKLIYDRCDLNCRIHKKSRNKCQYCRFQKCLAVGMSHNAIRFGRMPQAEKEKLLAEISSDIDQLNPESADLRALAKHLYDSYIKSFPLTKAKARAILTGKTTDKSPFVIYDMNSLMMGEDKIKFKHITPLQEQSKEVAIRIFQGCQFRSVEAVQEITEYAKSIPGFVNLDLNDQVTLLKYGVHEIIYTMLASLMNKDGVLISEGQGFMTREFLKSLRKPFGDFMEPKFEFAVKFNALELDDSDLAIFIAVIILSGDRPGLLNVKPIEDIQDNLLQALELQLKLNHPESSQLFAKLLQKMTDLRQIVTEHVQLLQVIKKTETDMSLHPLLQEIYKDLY
Chain of Peroxisome proliferator-activated receptor gamma/Nuclear receptor coactivator 3 (Q9Y6Q9 whole entry, further chain): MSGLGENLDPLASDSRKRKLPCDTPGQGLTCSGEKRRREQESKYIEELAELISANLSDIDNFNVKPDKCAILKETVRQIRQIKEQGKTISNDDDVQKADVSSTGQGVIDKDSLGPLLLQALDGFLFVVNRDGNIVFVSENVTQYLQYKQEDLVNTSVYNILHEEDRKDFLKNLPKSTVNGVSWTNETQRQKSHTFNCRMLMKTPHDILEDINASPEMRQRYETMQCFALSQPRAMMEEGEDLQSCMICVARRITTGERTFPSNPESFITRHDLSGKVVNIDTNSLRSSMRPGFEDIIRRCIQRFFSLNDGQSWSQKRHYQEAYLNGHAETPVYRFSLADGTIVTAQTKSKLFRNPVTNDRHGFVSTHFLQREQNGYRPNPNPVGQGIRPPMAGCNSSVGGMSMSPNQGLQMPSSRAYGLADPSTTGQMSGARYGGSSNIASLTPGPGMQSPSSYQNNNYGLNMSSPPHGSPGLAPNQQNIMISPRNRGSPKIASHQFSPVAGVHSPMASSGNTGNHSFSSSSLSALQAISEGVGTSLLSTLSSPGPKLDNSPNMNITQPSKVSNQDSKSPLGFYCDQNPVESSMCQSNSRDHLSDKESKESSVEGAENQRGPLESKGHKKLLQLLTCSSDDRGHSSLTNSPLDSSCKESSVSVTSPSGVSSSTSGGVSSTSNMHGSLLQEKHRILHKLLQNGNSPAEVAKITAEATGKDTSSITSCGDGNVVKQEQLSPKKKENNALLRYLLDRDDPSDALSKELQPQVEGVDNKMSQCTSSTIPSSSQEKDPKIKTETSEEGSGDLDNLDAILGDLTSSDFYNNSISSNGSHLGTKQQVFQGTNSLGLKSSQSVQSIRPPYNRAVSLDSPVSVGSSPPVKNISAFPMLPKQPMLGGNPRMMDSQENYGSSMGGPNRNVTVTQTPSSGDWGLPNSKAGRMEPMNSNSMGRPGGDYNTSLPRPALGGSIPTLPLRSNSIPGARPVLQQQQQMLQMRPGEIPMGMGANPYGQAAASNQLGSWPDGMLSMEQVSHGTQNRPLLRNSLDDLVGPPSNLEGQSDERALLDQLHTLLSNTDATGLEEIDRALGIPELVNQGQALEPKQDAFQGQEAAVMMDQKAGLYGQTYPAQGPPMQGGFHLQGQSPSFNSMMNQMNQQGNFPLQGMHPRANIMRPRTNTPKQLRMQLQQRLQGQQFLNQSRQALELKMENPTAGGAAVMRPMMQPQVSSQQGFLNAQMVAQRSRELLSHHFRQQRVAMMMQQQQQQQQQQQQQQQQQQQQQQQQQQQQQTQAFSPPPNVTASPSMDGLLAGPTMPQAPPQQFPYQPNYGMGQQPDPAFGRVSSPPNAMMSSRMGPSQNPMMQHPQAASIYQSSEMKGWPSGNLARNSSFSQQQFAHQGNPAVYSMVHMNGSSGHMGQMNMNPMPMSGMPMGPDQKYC
A short description of test [10]: microbe, parasite or virus in culture. The class given is functional. The settings on record: Mycobacterium tuberculosis.
The nature of test [11]: Shn3 3'UTR reporter inhibitors, dose response, cell-based, Clone20 osteoblasts, firefly luciferase, cherry-picked (AID 624132).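 Also: firefly luciferase luminescence from reporter carrying the Shn3 3'UTR in osteoblasts.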 Type of test: functional.
Test [12] is described as follows: HepG2 cell cytotoxicity, dose response, cytotoxicity control for Shn3 inhibitor project, CellTiter-Glo, cherry-picked (AID 624134). The class given is functional, cell-based.
Test [13] in a line: control 3'UTR Renilla luciferase suppression, dose response, counter-screen for Shn3 inhibitor project, cell-based, Clone20-Shn3RL, cherry-picked (AID 624133). Type of test: functional.
Test [14] in a line: inhibitors of intracellular T. cruzi replication, confirmation, NIH3T3 host cells, beta-gal luminescence (AID 2044).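 Also: intracellular parasites grown in NIH/3T3 mouse fibroblasts as host cells; luminescent beta-galactosidase reporter signal from transgenic T. cruzi replicating inside host cells; inhibitors lower the luminescence signal.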 Type of test: functional, cell-based.
A short description of test [15]: cytotoxicity toward NIH3T3 fibroblasts, dose response, counter-screen, cell-based, ATP luminescence, mouse fibroblasts (AID 2010).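 Also: cells exposed to compound for about 90 hours before reading.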 The class given is functional.
Test [16] addresses T4, Histone-lysine N-methyltransferase NSD2 (Homo sapiens, UniProt O96028).
T4 sequence (O96028 whole entry): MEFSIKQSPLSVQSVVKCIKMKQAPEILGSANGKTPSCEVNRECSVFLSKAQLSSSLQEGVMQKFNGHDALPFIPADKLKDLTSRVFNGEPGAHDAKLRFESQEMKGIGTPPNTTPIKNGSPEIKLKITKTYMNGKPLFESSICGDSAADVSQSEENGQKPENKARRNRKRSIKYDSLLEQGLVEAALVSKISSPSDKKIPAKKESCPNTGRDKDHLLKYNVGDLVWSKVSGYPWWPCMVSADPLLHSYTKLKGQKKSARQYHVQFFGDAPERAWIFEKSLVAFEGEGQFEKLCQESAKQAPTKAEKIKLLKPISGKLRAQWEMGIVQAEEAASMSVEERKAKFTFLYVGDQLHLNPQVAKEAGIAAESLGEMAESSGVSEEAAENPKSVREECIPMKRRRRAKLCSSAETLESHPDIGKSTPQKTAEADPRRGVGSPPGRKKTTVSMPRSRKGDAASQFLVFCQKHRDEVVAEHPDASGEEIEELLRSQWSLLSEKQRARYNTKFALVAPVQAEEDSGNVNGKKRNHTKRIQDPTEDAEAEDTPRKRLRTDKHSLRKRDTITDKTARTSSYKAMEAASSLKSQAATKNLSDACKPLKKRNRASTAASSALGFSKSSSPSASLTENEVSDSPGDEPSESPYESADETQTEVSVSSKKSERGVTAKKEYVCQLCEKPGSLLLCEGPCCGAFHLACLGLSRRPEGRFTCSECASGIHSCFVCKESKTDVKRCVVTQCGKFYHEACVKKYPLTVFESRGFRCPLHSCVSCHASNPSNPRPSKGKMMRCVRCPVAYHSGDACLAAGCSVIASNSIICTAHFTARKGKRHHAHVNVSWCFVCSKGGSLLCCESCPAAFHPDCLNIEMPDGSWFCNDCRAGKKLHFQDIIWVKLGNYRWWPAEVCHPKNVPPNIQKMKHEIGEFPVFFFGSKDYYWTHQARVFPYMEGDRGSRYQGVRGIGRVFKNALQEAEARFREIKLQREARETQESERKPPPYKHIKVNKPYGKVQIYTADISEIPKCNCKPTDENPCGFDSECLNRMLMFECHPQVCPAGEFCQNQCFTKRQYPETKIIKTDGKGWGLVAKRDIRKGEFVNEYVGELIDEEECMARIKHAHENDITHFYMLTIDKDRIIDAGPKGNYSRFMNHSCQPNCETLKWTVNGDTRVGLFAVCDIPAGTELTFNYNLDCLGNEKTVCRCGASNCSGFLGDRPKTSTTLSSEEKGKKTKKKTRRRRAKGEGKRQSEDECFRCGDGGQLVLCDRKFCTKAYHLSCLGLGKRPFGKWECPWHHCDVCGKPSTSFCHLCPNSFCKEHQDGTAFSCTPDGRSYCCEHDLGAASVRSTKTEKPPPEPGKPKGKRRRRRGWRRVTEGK
The class given is biochemical.

In test [17] the target is T5, Heat shock factor protein 1 (Mus musculus, UniProt P38532).
T5 sequence (P38532 whole entry): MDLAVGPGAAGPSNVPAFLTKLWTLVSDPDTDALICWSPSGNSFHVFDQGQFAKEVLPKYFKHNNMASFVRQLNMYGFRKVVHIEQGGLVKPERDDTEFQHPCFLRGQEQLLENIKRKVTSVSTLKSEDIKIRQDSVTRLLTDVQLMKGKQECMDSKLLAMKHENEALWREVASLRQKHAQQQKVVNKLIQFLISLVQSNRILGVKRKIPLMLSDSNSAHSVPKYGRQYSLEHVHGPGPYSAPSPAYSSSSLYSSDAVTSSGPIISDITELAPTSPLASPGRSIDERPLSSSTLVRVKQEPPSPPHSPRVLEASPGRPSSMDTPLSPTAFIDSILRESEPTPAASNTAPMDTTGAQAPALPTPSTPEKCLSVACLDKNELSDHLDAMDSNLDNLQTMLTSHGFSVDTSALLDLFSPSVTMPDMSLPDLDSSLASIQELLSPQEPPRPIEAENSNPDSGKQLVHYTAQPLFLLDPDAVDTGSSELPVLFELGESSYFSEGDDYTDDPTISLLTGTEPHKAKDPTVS
The test can be described thus: HSF1 potentiators in luciferase reporter cells, confirmation, cell-based, NIH3T3, luminescence, dose retest (AID 435004).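 Also: stress induced by proteasome inhibitor MG132 added 30 min after compound; luciferase reporter driven by HSF1 response element in NIH3T3 cells; actives raise luminescence as potentiators of the MG132 stress response.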 Type of test: functional.

The nature of test [18]: HEp-2 cell cytotoxicity, dose response, cytotoxicity control for RSV inhibitor project, HTS (AID 2410). The class given is functional. The settings on record: human respiratory syncytial virus.
Test [19] is described as follows: growth suppression of PTEN-null colon cells, dose response, cell-based, HCT116 PTEN knockout (AID 1047).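 Also: HCT116 colon tumor cells with PTEN knocked out; cells exposed to compound for 60 hours before readout; potency for loss of cell viability measured by luminescence.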 The class given is functional.
The nature of test [20]: growth suppression of beta-catenin-knockout colon cells, dose response, cell-based, HCT116, human colon tumor (AID 1045).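 Also: HCT116 colon tumor cells with beta catenin knocked out; cells exposed to compound for 60 hours.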 Type of test: functional.
Test [21] deals with P388/ADR. As to the kind of experiment: cells. Type of test: functional. Particulars: Mus musculus.
In test [22] the test system is SN12K1. As to the kind of experiment: cells. The class given is functional. Particulars: Homo sapiens.
Test [23] concerns P388. The test can be described thus: cells. The class given is functional. The settings on record: Mus musculus.

Activity calls are given as the source filed them.

Chain of Peroxisome proliferator-activated receptor gamma/Nuclear receptor coactivator 2 (P37231 whole entry): as the sequence (P37231 whole entry) above
Chain of Peroxisome proliferator-activated receptor gamma/Nuclear receptor coactivator 2 (Q15596 whole entry, further chain): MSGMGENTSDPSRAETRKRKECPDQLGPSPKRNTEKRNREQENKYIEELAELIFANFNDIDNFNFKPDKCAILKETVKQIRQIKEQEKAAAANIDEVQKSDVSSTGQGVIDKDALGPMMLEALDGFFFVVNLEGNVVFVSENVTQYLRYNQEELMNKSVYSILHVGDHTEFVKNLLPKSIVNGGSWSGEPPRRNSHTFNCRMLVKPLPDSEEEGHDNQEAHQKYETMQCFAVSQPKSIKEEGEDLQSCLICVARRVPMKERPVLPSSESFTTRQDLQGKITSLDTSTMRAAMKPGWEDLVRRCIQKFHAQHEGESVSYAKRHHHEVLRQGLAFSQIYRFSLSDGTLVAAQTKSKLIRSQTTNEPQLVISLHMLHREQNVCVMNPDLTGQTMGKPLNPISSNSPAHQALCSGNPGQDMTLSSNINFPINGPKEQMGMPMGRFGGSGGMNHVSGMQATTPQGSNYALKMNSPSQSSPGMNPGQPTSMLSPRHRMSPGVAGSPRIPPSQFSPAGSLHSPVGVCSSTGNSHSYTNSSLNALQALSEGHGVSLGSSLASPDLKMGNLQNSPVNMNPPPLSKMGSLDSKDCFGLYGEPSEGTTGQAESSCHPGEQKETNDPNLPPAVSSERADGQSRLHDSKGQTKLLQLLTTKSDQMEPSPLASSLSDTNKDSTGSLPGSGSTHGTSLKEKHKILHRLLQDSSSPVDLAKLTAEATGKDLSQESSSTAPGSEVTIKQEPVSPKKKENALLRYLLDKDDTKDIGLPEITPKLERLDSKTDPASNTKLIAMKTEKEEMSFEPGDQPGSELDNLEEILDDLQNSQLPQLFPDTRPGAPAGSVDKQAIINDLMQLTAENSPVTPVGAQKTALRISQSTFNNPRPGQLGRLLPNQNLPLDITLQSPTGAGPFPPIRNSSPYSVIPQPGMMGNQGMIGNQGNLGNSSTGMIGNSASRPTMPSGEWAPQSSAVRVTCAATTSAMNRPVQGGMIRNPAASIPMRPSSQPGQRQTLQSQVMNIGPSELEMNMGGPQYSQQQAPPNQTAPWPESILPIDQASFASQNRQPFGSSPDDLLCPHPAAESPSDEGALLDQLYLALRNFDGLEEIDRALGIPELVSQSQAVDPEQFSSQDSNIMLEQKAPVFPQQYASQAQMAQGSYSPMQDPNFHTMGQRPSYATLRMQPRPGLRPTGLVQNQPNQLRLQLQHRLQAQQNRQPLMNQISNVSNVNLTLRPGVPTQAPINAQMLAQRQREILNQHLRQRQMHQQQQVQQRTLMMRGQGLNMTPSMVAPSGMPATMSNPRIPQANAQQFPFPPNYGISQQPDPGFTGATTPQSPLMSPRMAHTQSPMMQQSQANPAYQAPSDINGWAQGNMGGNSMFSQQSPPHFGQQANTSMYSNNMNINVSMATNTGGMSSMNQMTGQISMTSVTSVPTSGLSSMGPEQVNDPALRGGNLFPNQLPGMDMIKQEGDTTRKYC
Chain of Glyceraldehyde-3-phosphate dehydrogenase (P04406 whole entry): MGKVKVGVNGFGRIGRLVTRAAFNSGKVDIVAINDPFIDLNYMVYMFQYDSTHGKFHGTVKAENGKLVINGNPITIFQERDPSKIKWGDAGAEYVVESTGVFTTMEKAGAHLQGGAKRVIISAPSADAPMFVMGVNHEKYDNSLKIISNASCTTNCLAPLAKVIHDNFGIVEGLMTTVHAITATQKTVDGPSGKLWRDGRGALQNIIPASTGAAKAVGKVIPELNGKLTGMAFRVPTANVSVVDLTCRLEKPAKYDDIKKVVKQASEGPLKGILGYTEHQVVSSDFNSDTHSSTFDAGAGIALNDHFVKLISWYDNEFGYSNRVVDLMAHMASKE

Consider `CC(C)(C)OC(=O)[C@H](CCCCN)NC(=O)c1[nH]cnc1C(=O)N[C@@H](Cc1ccccc1)C(=O)OCc1ccccc1`, for which the IC50 in [1] is > 20 µM (inactive).

As to `COc1ccc(Cl)cc1Nc1nc(NCCO)nc(N2CCCCC2)n1`, the IC50 was > 20 µM (inactive) in test [1] and > 47.1 µM (inactive) in [2]. Besides, in test [3], the EC50 was > 53 µM (inactive).

As for `CC[C@]1(c2cccc(C)c2)C(=O)N(C(=O)OC)N1C(=O)OC`, the IC50 in [4] was 9.04 µM (active); in [5], 8.6 µM (active).

With `O=C(O)c1cc(NS(=O)(=O)c2cc([N+](=O)[O-])ccc2Cl)ccc1O`, in test [6], the IC50 is recorded as > 100 µM (not active).

Consider `COc1cc([N+](=O)[O-])ccc1S(=O)(=O)Nc1cccnc1`, for which, in [6], the IC50 is given as > 100 µM (not active).

Take `CC(=O)Nc1ccc(NC(=O)c2ccccc2S(=O)(=O)c2ccc([N+](=O)[O-])cc2)cc1`: the IC50 in test [4] is 13.8 µM (active); in [5], 15.9 µM (active).

With `Cc1n[nH]c(C)c1S(=O)(=O)N(CC(=O)Nc1ccc2c(c1)OCCO2)c1ccc(C(C)C)cc1`, the EC50 in test [7], in [8] and in test [9] was > 79.4 µM (not active) in each case.

For the compound `Oc1ccccc1Nc1nc(NCc2ccccc2)c2ccccc2n1`, the CC50 in test [10] was 23.9 µM (active). Also, the IC50 in test [1] is > 20 µM (inactive). In addition, the AC50 in test [11] was 10.7 µM (active); in [12], 52.7 µM (active); in test [13] it was 5.63 µM (active).

As for `NCCc1c(-c2ccccc2)n(-c2ccccc2)c2ccccc12`, the EC50 in test [14] was 2.47 µM (active); in test [15], > 60 µM (inconclusive). Moreover, the AC50 in test [16] is > 20 µM (inactive).

For the compound `O=C(c1cnc(-c2ccc(Cl)cc2)s1)c1ccc(Cl)cc1Cl`, the EC50 in [7] is given as 18.7 µM (not active); in [8], 30.8 µM (not active); in test [9], 38.7 µM (not active).

Turning to `CCN1CC2CCCC3(C1)C(=O)NC1(CCCCC1)N=C23` (centres undefined), the AC50 in test [16] is 15 µM (active).

With `CCCCOc1ccc(NC2=NC3(CCCC3)N=C(N)N2)cc1`, the EC50 in test [7], in [8] and in test [9] was > 79.4 µM (not active) in each case.

`COC(=O)c1ccc(C(=O)OC)c(NC(=O)C(C)(C)C)c1`: the EC50 in test [7] is > 79.4 µM (not active); in test [8], > 79.4 µM (not active); in test [9] it was > 79.4 µM (not active); in test [17] it was > 260 µM (inactive).

Turning to `COc1ccc(S(=O)(=O)N2CCN(c3ccc4nnc(-c5ccccc5)n4n3)CC2)cc1`, in test [18], the CC50 was > 50 µM (active). Also, the IC50 in test [1] was > 20 µM (inactive).

As to `COC(=O)c1c(NC(=O)C(=O)N2CCCC2)sc2c1CC(C)(C)OC2`, the IC50 in [1] is > 20 µM (inactive).

For the compound `O=C(NCCCCc1ccccc1)C1CC(c2cccc([N+](=O)[O-])c2)=NO1` (centres undefined), the IC50 was 3.11 µM (active) in [4] and 4.27 µM (active) in test [5].

On to `Cc1ccc([N+](=O)[O-])cc1NC(=O)CN(C(=O)c1ccc(Cl)cc1)C1CCCCC1`, for which the EC50 is 43.7 µM (active) in test [19] and 209 µM (active) in test [20]. The IC50 in test [4] was 1.18 µM (active); in [5] it was 1.24 µM (active).

Take `COc1ccc(C2COc3cc(O)c(O)cc3C2)cc1` (centres undefined): the GI50 in test [21] was 1.19 µM (inactive); in test [22], 13.8 µM (inactive); in [23], 1.67 µM (inactive).

As for `CCN(CC)S(=O)(=O)c1cccc(NC(=O)COC(=O)c2nnc(O)c3ccccc23)c1`, the EC50 in test [7], in [8] and in [9] was > 79.4 µM (not active) each time.

As for `CC(C)(C)SCCNC(=O)/C=C/c1cccc([N+](=O)[O-])c1`, the results for the IC50 in test [4] and in [5] were 4.09 µM (active) and 6.29 µM (active), respectively.
